Measurements reported in patent US20120225061A1, “TETRASUBSTITUTED CYCLOHEXYL COMPOUNDS AS KINASE INHIBITORS” (priority 2011, published 2012).

What was measured:
[1] = system: KMS11 (human myeloma cell line); test: Cell proliferation assay (CellTiter-Glo) in KMS11 cells; type: cell-based; details: KMS-11, 72 h, Table 5, 3 days, read-out: KMS11-luc EC50
Summary of the method: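 KMS11 cells at 2000 per well in IMDM/10% FBS were exposed to compound for 3 days. Viability was read by CellTiter-Glo luminescence.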

[2] = molecular target: Pim3 kinase (Homo sapiens, UniProt Q86V86); test: Pim3 AlphaScreen assay (high ATP)
Experimental: (§1) The activity of Pim 1, Pim 2, & Pim 3 is measured using a homogeneous bead based system quantifying the amount of phosphorylated peptide substrate resulting from kinase-catalyzed phosphoryl transfer to a peptide substrate. Compounds to be tested are dissolved in 100% DMSO and directly distributed to a white 384-well plate at 0.25 μl per well. […] This is followed by the addition of 5 μl/well of Pim 1, Pim 2 or Pim 3 kinase in assay buffer (concentrations described below). Final assay concentrations (described below) are in 2.5% DMSO. The reactions are performed for ˜2 hours, then stopped by the addition of 10 μl of 0.75 μg/ml anti-phospho Ser/Thr antibody (Cell Signaling), 10 μg/ml Protein A AlphaScreen beads (Perkin Elmer), and 10 μg/ml streptavidin coated AlphaScreen beads in stop/detection buffer (50 mM EDTA, 95 mM Tris, pH=7.5, 0.01% Tween-20). The stopped reactions are incubated overnight in the dark. The phosphorylated peptide is detected via an oxygen anion initiated chemiluminescence/fluorescence cascade using the Envision plate reader (Perkin Elmer).

[3] = molecular target: Pim1 kinase (Homo sapiens, UniProt P11309); test: Pim1 AlphaScreen assay (high ATP)
Sequence of Pim1 kinase (P11309 whole entry): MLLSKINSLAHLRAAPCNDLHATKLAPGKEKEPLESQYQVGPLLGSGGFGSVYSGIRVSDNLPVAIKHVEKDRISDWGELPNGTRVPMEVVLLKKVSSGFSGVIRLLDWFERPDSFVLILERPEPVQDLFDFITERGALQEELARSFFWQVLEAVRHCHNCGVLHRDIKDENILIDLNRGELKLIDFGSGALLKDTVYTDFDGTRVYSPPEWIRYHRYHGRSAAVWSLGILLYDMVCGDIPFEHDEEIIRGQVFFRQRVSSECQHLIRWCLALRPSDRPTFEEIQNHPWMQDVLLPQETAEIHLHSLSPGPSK
Experimental: as §1

[4] = molecular target: Pim2 kinase (Homo sapiens, UniProt Q9P1W9); test: Pim2 AlphaScreen assay (high ATP)
Sequence of Pim2 kinase (Q9P1W9 whole entry): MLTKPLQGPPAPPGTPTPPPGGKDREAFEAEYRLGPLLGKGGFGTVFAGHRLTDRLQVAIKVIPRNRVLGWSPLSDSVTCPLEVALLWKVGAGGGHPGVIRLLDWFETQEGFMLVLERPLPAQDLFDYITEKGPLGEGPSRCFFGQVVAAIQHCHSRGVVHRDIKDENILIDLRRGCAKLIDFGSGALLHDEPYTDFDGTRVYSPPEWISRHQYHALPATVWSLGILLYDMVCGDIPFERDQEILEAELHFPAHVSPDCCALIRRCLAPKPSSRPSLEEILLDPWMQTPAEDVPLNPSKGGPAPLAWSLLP
Experimental: as §1

## COCCCOc1cc(F)c(-c2nc(C(=O)Nc3cnccc3[C@H]3C[C@@H](N)[C@](C)(O)[C@@H](C)C3)ccc2F)c(F)c1 [Example 100, N-(4-((1R,3R,4R,5S)-3-amino-4-hydroxy-4,5-dimethylcyclohexyl)pyridin-3-yl)-6-(2,6-difluoro-4-(3-methoxypropoxy)phenyl)-5-fluoropicolinamide]
[1]
  EC50: 340 nM
[2]
  IC50: 0.69 nM
[3]
  IC50: 0.04 nM
[4]
  IC50: 2.15 nM

## C[C@H]1C[C@@H](c2ccncc2NC(=O)c2ccc(F)c(-c3c(F)cc(OCC4CCOCC4)cc3F)n2)C[C@@H](N)[C@]1(C)O [Example 101, N-(4-((1R,3R,4R,5S)-3-amino-4-hydroxy-4,5-dimethylcyclohexyl)pyridin-3-yl)-6-(2,6-difluoro-4-((tetrahydro-2H-pyran-4-yl)methoxy)phenyl)-5-fluoropicolinamide]
[1]
  EC50: 334 nM
[2]
  IC50: 0.85 nM
[3]
  IC50: 0.04 nM
[4]
  IC50: 2.21 nM

## C[C@H]1C[C@@H](c2ccncc2NC(=O)c2ccc(F)c(-c3c(F)cc4c(c3F)OCC4)n2)C[C@@H](N)[C@]1(C)O [Example 102, N-(4-((1R,3R,4R,5S)-3-amino-4-hydroxy-4,5-dimethylcyclohexyl)pyridin-3-yl)-6-(5,7-difluoro-2,3-dihydrobenzofuran-6-yl)-5-fluoropicolinamide]
[1]
  EC50: 175 nM
[2]
  IC50: 0.61 nM
[3]
  IC50: 0.02 nM
[4]
  IC50: 1.5 nM

## C[C@H]1C[C@@H](c2ccncc2NC(=O)c2ccc(F)c(-c3c(F)cc(C(C)(C)C(=O)O)cc3F)n2)C[C@@H](N)[C@]1(C)O [Example 103, 2-(4-(6-(4-((1R,3R,4R,5S)-3-amino-4-hydroxy-4,5-dimethylcyclohexyl)pyridin-3-ylcarbamoyl)-3-fluoropyridin-2-yl)-3,5-difluorophenyl)-2-methylpropanoic acid]
[1]
  EC50: > 10000 nM
[2]
  IC50: 58.9 nM
[3]
  IC50: 1.43 nM
[4]
  IC50: 14.1 nM

## C[C@H]1C[C@@H](c2ccncc2NC(=O)c2ccc(F)c(-c3c(F)cc(C(F)F)cc3F)n2)C[C@@H](N)[C@]1(C)O [Example 104, N-(4-((1R,3R,4R,5S)-3-amino-4-hydroxy-4,5-dimethylcyclohexyl)pyridin-3-yl)-6-(4-(difluoromethyl)-2,6-difluorophenyl)-5-fluoropicolinamide]
[1]
  EC50: 823 nM
[2]
  IC50: 4.37 nM
[3]
  IC50: 0.07 nM
[4]
  IC50: 7.56 nM

## C[C@H]1C[C@@H](c2ccncc2NC(=O)c2ccc(F)c(-c3c(F)cc(C4(O)CCC4)cc3F)n2)C[C@@H](O)[C@]1(C)O [Example 105, 6-(2,6-difluoro-4-(1-hydroxycyclobutyl)phenyl)-N-(4-((1R,3R,4R,5S)-3,4-dihydroxy-4,5-dimethylcyclohexyl)pyridin-3-yl)-5-fluoropicolinamide]
[1]
  EC50: 2980 nM
[2]
  IC50: 78.3 nM
[3]
  IC50: 0.55 nM
[4]
  IC50: 120 nM

## CC(C)Oc1cc(F)c(-c2nc(C(=O)Nc3cnccc3[C@H]3C[C@@H](O)[C@](C)(O)[C@@H](C)C3)ccc2F)c(F)c1 [Example 106, 6-(2,6-difluoro-4-isopropoxyphenyl)-N-(4-((1R,3R,4R,5S)-3,4-dihydroxy-4,5-dimethylcyclohexyl)pyridin-3-yl)-5-fluoropicolinamide]
[1]
  EC50: 1540 nM
[2]
  IC50: 69.2 nM
[3]
  IC50: 0.42 nM
[4]
  IC50: 183 nM

## COCCOc1cc(F)c(-c2nc(C(=O)Nc3cnccc3[C@H]3C[C@@H](O)[C@](C)(O)[C@@H](C)C3)ccc2F)c(F)c1 [Example 107, 6-(2,6-difluoro-4-(2-methoxyethoxy)phenyl)-N-(4-((1R,3R,4R,5S)-3,4-dihydroxy-4,5-dimethylcyclohexyl)pyridin-3-yl)-5-fluoropicolinamide]
[1]
  EC50: 3180 nM
[2]
  IC50: 74.2 nM
[3]
  IC50: 0.89 nM
[4]
  IC50: 253 nM

## C[C@H]1C[C@@H](c2ccncc2NC(=O)c2ccc(F)c(-c3c(F)cc(C4CCOCC4)cc3F)n2)C[C@@H](O)[C@]1(C)O [Example 108, 6-(2,6-difluoro-4-(tetrahydro-2H-pyran-4-yl)phenyl)-N-(4-((1R,3R,4R,5S)-3,4-dihydroxy-4,5-dimethylcyclohexyl)pyridin-3-yl)-5-fluoropicolinamide]
[1]
  EC50: 206 nM
[2]
  IC50: 30.7 nM
[3]
  IC50: 0.2 nM
[4]
  IC50: 66.2 nM

## C[C@H]1C[C@@H](c2ccncc2NC(=O)c2ccc(F)c(-c3c(F)cc(N4CCOCC4)cc3F)n2)C[C@@H](O)[C@]1(C)O [Example 109, 6-(2,6-difluoro-4-morpholinophenyl)-N-(4-((1R,3R,4R,5S)-3,4-dihydroxy-4,5-dimethylcyclohexyl)pyridin-3-yl)-5-fluoropicolinamide]
[1]
  EC50: 781 nM
[2]
  IC50: 41.3 nM
[3]
  IC50: 0.23 nM
[4]
  IC50: 138 nM

## C[C@H]1C[C@@H](c2ccncc2NC(=O)c2ccc(F)c(-c3c(F)cc(OCCO)cc3F)n2)C[C@@H](O)[C@]1(C)O [Example 111, 6-(2,6-difluoro-4-(2-hydroxyethoxy)phenyl)-N-(4-((1R,3R,4R,5S)-3,4-dihydroxy-4,5-dimethylcyclohexyl)pyridin-3-yl)-5-fluoropicolinamide]
[1]
  EC50: 538 nM
[2]
  IC50: 38.7 nM
[3]
  IC50: 0.83 nM
[4]
  IC50: 173 nM

## C[C@H]1C[C@@H](c2ccncc2NC(=O)c2ccc(F)c(-c3c(F)cc(OC4CCNCC4)cc3F)n2)C[C@@H](O)[C@]1(C)O [Example 112, 6-(2,6-difluoro-4-(piperidin-4-yloxy)phenyl)-N-(4-((1R,3R,4R,5S)-3,4-dihydroxy-4,5-dimethylcyclohexyl)pyridin-3-yl)-5-fluoropicolinamide]
[1]
  EC50: 4150 nM
[2]
  IC50: 18.3 nM
[3]
  IC50: 0.11 nM
[4]
  IC50: 56.5 nM

## C[C@H]1C[C@@H](c2ccncc2NC(=O)c2ccc(F)c(-c3c(F)cc(C4(F)CCOCC4)cc3F)n2)C[C@@H](O)[C@]1(C)O [Example 113, 6-(2,6-difluoro-4-(4-fluorotetrahydro-2H-pyran-4-yl)phenyl)-N-(4-((1R,3R,4R,5S)-3,4-dihydroxy-4,5-dimethylcyclohexyl)pyridin-3-yl)-5-fluoropicolinamide]
[1]
  EC50: 248 nM
[2]
  IC50: 127 nM
[3]
  IC50: 0.55 nM
[4]
  IC50: 128 nM

## C[C@H]1C[C@@H](c2ccncc2NC(=O)c2nc(-c3c(F)cc(C(C)(C)O)cc3F)ccc2N)C[C@@H](O)[C@]1(C)O [Example 114, 3-amino-6-(2,6-difluoro-4-(2-hydroxypropan-2-yl)phenyl)-N-(4-((1R,3R,4R,5S)-3,4-dihydroxy-4,5-dimethylcyclohexyl)pyridin-3-yl)picolinamide]
[1]
  EC50: 924 nM
[2]
  IC50: 6.93 nM
[3]
  IC50: 0.34 nM
[4]
  IC50: 21.7 nM

## CCN1CCC(c2cc(F)c(-c3nc(C(=O)Nc4cnccc4[C@H]4C[C@@H](O)[C@](C)(O)[C@@H](C)C4)ccc3F)c(F)c2)CC1 [Example 115, N-(4-((1R,3R,4R,5S)-3,4-dihydroxy-4,5-dimethylcyclohexyl)pyridin-3-yl)-6-(4-(1-ethylpiperidin-4-yl)-2,6-difluorophenyl)-5-fluoropicolinamide]
[1]
  EC50: 310 nM
[2]
  IC50: 32.8 nM
[3]
  IC50: 0.18 nM
[4]
  IC50: 104 nM

## C[C@H]1C[C@@H](c2ccncc2NC(=O)c2ccc(F)c(-c3c(F)cc(OCC(F)(F)F)cc3F)n2)C[C@@H](N)[C@]1(C)O [Example 118, N-(4-((1R,3R,4R,5S)-3-amino-4-hydroxy-4,5-dimethylcyclohexyl)pyridin-3-yl)-6-(2,6-difluoro-4-(2,2,2-trifluoroethoxy)phenyl)-5-fluoropicolinamide]
[1]
  EC50: 539 nM
[2]
  IC50: 1.61 nM
[3]
  IC50: 0.07 nM
[4]
  IC50: 3.57 nM
